| SMILES | melting point [°C] |
| --- | --- |
| Cc1ccc(C)c2[nH]c(N)nc12 | 164 to 170 |
| CCOC(=O)c1cc(-c2csc(-c3ccnc(N)c3)n2)c(=O)[nH]c1C | > 260 |
| CCCCCCCCCCCCCCOc1ccc(CN(C(=O)NC)c2cccc(CBr)c2)cc1 | 70 to 73 |
| CC(C)CC(COCC(N)=O)NC(=O)C1CCCN1C(=O)OCc1ccccc1 (centres undefined) | 146 to 148 |
| COC(=O)Cc1ccc(CNC(=O)C2Cc3ccccc3N2S(=O)(=O)c2ccc(-c3cccc(C(F)(F)F)c3)cc2)c(F)c1 (centres undefined) | 50 to 57 |
| COP(=O)(OC)C(C)NC(=O)C(C)NC(=O)C(C)NC(=O)CNC(C)(C)C (centres undefined) | 148 to 152 |
| C/C(=C\C=C(c1ccccc1)c1ccccc1)C(=O)NCCCCc1cccnc1 | 93 to 94 |
| CCCCCCCNC(=O)Nc1ccccc1C(=O)NCC1c2ccccc2COc2ccc(Br)cc21 (centres undefined) | 71 to 76 |
| CC(=O)NCC1CC1c1cccc2nc(C(F)(F)F)cn12 (centres undefined) | 135 to 137 |
| CN1C(=O)[C@H](NC(=O)/C=C/c2ccc(Cl)c(Cl)c2)N=C(c2ccccc2)c2ccccc21 | 145 to 147 |
| O=C(OCC(O)CO)C(=O)c1ccc(OCCOc2ccc3ccccc3c2)cc1 (centres undefined) | 124 to 125 |
| CCCC(=O)Nc1cc(Oc2ccc(Cl)cc2)ccc1NC(=NC(=O)OC)NC(=O)OC | 201 |
| COC(=O)c1ccccc1Oc1ccc(S(=O)(=O)NCc2ccnc3ccccc23)cc1 | 163 to 166 |
| CN(O)C(=O)C1=Cc2cc(OCc3ccccc3)ccc2OC1 | 143 to 146 |
| COc1ccc2cc([C@H](C)C(=O)OCC(=O)N(C)CC(=O)OC(C)(C)C)ccc2c1 | 103 to 104 |
| N#Cc1ccc(OCc2ccsc2)cc1OC(C(=O)O)c1cccc(Cl)c1 (racemic) | 134 to 136 |
| Nc1nc(N)c(-c2cc(Cl)cc(Cl)c2Cl)nc1Br | 222 to 224 |
| COc1ccc(-c2c3c(cc4ccc5c(c24)OCO5)C(=O)OC3)cc1OC | 221 to 223 |
| NS(=O)(=O)c1ccc(-c2cccc(-c3nc(-c4ccc(Cl)cc4)cc(C(F)(F)F)n3)c2)s1 | 226 |
| COc1ccc(CC2CC(=O)CCN2C(=O)c2cc(C(F)(F)F)cc(C(F)(F)F)c2)cc1OC (centres undefined) | 133 |
| CN(C)c1ccc(NC(=O)N(CC(C)(C)C)C[C@H]2CC[C@H](CN(CC(C)(C)C)C(=O)Nc3ccc(N(C)C)cc3)CC2)cc1 | 178 to 181 |
| CC(C#N)C(O)(Cn1cncn1)c1ccc(Cl)cc1Cl (centres undefined) | 164 |

| SMILES | melting point [°C] |
| --- | --- |
| CCOC(=O)NC(CCc1ccccc1)P(=O)(CC(=O)O)OCc1ccccc1 (centres undefined) | 151 to 153 |
| CS(=O)(=O)OCCCCCCNC(=O)CNC(=O)OCc1ccccc1 | 82 to 83 |
| CCCCCCCCCCCCOC(=O)NS(=O)(=O)Nc1c(OC)cc(OC)cc1OC | 133 to 136 |
| Cc1nn(-c2ccccn2)cc1COc1ccc(CC(=O)O)cc1 | 161 to 162 |
| Cn1cc2c(nc(NC(=O)Nc3ccc(CC(=O)NCCCCNC(=O)OC(C)(C)C)cc3)n3nc(-c4ccco4)nc23)n1 | 186 to 193 |
| Cn1c(=O)c2c(nc(Cl)n2Cc2ccccc2)n(C)c1=O | 146 to 147 |
| Clc1ccc(-n2cccn2)cc1 | 50 to 53 |
| COc1cc2oc(=O)c3c(c2cc1OC)CCN(CCN1CC2CCC1CC2)C3 | 133 to 135 |
| CCc1cc(C(=O)OC)nn1C | 188 to 191 |
| FC(F)(F)c1ccc(Oc2ccc3nonc3c2)cc1 | 77 to 78 |
| CC(C)CC(=O)Nc1cccc(-c2ccnc3c(-c4ccc(-c5ccccc5)cc4)cnn23)c1 | 157 to 160 |
| COc1ccc(C2=NNC(=O)[C@H]3CC=CC[C@@H]23)cc1OC (relative stereo) | 173 to 174 |
| CC(=O)Oc1cc(C)cc(C(=O)N[C@@H](Cc2ccccc2)[C@H](OC(C)=O)C(=O)O)c1C | 185 to 186 |
| CCCCCCCCCCCCCCOc1ccc(C(=O)OC)cc1OC | 50 to 51 |
| CCNC(=O)Nc1cc(-c2c(-c3ccc(F)c(C)c3)nc3c(C)ccnn23)ccn1 | 240 to 241 |
| C[C@@H](NS(=O)(=O)c1ccc(Cl)cc1)[C@](O)(Cn1cncn1)c1ccc(Cl)cc1Cl (relative stereo) | 160 to 165 |
| Cc1nc2c3c(ccn2c1C)C(O)C(O)C(c1ccccc1)N3 (centres undefined) | 199 to 200 |
| Cc1ccccc1C(=O)CN1C(=O)C(NC(=O)Nc2cccc(C(=O)NS(C)(=O)=O)c2)CN(c2ccccc2)c2ccccc21 (centres undefined) | 210 to 220 |
| CCOC(=O)Cn1c(=O)c(-c2ccccc2Cl)cc2cnc(NC3C4CN(Cc5ccccc5)CC43)nc21 (centres undefined) | 186 to 188 |
| Cc1c(C)c2c(c(C)c1N)CC(C)(CN1CCN(C(=O)CC(c3ccccc3)c3ccccc3)CC1)O2 (centres undefined) | 77 to 78 |
| CCCn1c(=O)c2c(nc(C=Cc3cc(OC)c(OC)cc3S(=O)(=O)O)n2C)n(CCC)c1=O | 192 to 194 |
| CCCCC/C=C\C/C=C\CCCCCCC[C@@H](C[C@@H]1OC(=O)[C@H]1CC)OC(=O)[C@H](CC(C)C)NC=O | 48 to 53 |

Other lines, results leading:

| melting point [°C] | SMILES |
| --- | --- |
| 81 to 83 | COc1ccccc1OCC1SCCN1C(=O)CI (centres undefined) |
| 197 to 198 | Cc1ccccc1C(=O)Nc1ccc(C(=O)N2CCCC(N(C)S(C)(=O)=O)c3ccccc32)cc1 (centres undefined) |
| 271 to 272 | ON=C1CCCc2c1c1cccc3c1n2CC3 |
| 137 to 138 | CN(C)CCC(=O)n1cc(-c2ccccc2)c2ccccc21 |
| 214 to 216 | CCOC(=O)N1CCc2cc(S(=O)(=O)n3cc(-c4ccccc4)[nH]c3=O)ccc21 |
| 249 to 251 | CCc1nn(C2CCCC2)c2cc(C(=O)Nc3ccc(C(=O)O)cc3)ccc12 |
| 114 | Cc1cccc(CC(=O)c2ccnc(-c3ccc(N4CCOCC4)cc3)c2)n1 |
| 122 to 123 | COc1cc2ncnc(N3CCN(C(=O)Nc4ccc(CN5CCCCC5)cc4)CC3)c2cc1OC |
| 157 to 159 | O=C(CCCN1CCCCC1)c1ccc2c(c1)Cc1cc(C(=O)CCCN3CCCCC3)ccc1-2 |
| 62 to 64 | COc1cccc2c(=O)c(-c3cccc(C(F)(F)F)c3F)nn(CCCNS(C)(=O)=O)c12 |
| 182 | COC(=O)c1ccc(C2c3[nH]c4ccccc4c3CCN2C(=O)C=Cc2cccc(C(=O)OC)c2)cc1 (centres undefined) |
| 224 to 226 | O=C1CCC(N2Cc3cc(CNC(=O)Nc4cccc(Oc5ccccc5)c4)ccc3C2=O)C(=O)N1 (centres undefined) |
| 163 to 164 | Cc1cc(-c2sc(N3CCN(Cc4cccc(C(F)(F)F)c4)C3=O)nc2C)n[nH]1 |
| 136 to 137 | CCC1Cc2c(C)c(OCC(=O)O)c(C)c(C)c2C1=O (centres undefined) |
| 201 to 202 | Cc1ccc(C(=O)Nc2ccc(N3CCCCC3)c(C(F)(F)F)c2)cc1Nc1nccc(-c2cccnc2)n1 |
| 202 to 204 | Cn1nc(S(C)(=O)=O)c(=O)c2ccccc21 |
| 105 to 107 | COc1ccc(C2=CC(O)CC2)cc1OC1CCCC1 (centres undefined) |
| 178 to 179 | O=C(O)COc1ccc(SCc2ccc(-c3ccc(C(F)(F)F)cn3)cc2)c2c1CCCO2 |
| 110 to 112 | Cc1cc(-c2c(C)nc3ccc(N4CCNC(C)(C)C4)nn23)ccn1 |
| 127 to 130 | CC(C)(C)OC(=O)N1CCN(C2=Nc3ccccc3Sc3ccccc32)CC1 |

From a melting point compilation (Tetko et al.; mined from patent text by program, amines drawn as free bases though some values may be those of a salt)
